Experiments:
Experiment in all cases: biochemical
Parameters in all cases: KINOMEscan active-site competition binding, percent of control (100 = no competition)
Settings in all cases: competition binding, percent control
FGR = FGR (Homo sapiens, UniProt P09769)
EGFR(L861Q) = EGFR(L861Q) (Homo sapiens, UniProt P00533, L861Q)
PIK4CB = target: T1, PIK4CB (Homo sapiens, UniProt Q9UBF8)
T1 construct: gene PI4KB

MAP3K3 = MAP3K3 (Homo sapiens, UniProt Q99759)
MAST1 = MAST1 (Homo sapiens, UniProt Q9Y2H9)
ABL2 = ABL2 (Homo sapiens, UniProt P42684)
VRK2 = VRK2 (Homo sapiens, UniProt Q86Y07)
Sequence of VRK2 (Q86Y07 whole entry): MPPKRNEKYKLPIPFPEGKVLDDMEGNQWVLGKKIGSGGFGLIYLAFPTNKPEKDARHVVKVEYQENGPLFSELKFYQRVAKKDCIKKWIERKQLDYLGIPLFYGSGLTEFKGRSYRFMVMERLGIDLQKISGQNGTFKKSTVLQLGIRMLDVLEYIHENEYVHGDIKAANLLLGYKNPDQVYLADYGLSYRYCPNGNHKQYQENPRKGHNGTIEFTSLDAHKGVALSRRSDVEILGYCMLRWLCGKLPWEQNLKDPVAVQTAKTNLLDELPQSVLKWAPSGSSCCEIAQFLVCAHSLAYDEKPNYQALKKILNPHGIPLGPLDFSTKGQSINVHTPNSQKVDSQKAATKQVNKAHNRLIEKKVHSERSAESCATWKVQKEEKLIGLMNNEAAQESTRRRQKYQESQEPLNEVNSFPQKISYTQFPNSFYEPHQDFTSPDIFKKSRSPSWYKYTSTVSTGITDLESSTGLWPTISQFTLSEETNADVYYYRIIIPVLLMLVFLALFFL

PRKD2 = PRKD2 (Homo sapiens, UniProt Q9BZL6)
FGFR1 = FGFR1 (Homo sapiens, UniProt P11362)
Sequence of FGFR1 (P11362 whole entry): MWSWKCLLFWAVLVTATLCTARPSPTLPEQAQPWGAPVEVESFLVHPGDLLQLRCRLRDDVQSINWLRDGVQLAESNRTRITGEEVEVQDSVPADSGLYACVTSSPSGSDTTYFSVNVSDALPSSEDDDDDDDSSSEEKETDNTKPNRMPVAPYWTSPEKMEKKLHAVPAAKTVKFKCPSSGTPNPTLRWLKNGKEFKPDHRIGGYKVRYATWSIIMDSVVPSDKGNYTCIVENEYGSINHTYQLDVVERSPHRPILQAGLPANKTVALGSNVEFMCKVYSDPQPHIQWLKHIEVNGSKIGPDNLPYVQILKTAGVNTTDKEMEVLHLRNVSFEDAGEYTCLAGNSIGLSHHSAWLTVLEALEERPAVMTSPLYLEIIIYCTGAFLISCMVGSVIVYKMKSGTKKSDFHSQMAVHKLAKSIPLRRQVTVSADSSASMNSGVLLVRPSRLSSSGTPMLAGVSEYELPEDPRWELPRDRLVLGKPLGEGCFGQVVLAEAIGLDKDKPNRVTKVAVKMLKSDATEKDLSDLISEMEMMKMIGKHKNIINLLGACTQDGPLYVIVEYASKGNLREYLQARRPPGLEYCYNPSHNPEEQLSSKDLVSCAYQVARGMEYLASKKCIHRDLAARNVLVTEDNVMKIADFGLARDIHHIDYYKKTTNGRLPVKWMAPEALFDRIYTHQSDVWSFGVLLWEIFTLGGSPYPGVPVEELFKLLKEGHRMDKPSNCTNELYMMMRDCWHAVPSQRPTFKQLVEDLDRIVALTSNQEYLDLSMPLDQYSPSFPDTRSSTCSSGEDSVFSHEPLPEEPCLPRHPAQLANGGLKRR

STK36 = STK36 (Homo sapiens, UniProt Q9NRP7)
[1] = target: T2, RPS6KA5(Kin.Dom.1-N-terminal) (Homo sapiens, UniProt O75582)
T2 construct: Kin.Dom.1-N-terminal

NEK9 = NEK9 (Homo sapiens, UniProt Q8TD19)
PIP5K1C = PIP5K1C (Homo sapiens, UniProt O60331)
MAP4K2 = MAP4K2 (Homo sapiens, UniProt Q12851)
Sequence of MAP4K2 (Q12851 whole entry): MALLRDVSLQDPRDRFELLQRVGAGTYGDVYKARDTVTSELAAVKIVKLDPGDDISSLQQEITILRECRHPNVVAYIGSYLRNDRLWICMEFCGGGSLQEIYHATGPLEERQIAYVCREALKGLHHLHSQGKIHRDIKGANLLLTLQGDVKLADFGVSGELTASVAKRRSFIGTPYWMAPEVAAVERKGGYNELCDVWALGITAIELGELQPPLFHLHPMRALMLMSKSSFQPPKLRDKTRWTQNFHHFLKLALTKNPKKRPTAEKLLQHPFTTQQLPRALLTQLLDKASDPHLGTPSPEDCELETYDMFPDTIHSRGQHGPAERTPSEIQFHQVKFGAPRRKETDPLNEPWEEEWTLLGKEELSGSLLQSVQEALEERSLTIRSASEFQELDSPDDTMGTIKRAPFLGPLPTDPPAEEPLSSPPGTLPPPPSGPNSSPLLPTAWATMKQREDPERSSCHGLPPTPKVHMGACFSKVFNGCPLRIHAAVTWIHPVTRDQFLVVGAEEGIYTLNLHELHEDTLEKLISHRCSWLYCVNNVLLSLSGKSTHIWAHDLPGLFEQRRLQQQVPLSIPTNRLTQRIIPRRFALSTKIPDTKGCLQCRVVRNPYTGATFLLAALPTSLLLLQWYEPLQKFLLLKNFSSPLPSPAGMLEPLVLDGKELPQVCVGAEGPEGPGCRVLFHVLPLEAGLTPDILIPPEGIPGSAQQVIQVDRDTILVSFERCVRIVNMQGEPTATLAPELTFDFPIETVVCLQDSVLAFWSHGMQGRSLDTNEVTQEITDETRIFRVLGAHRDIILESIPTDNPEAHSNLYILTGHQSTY

IRAK3 = IRAK3 (Homo sapiens, UniProt Q9Y616)
Sequence of IRAK3 (Q9Y616 whole entry): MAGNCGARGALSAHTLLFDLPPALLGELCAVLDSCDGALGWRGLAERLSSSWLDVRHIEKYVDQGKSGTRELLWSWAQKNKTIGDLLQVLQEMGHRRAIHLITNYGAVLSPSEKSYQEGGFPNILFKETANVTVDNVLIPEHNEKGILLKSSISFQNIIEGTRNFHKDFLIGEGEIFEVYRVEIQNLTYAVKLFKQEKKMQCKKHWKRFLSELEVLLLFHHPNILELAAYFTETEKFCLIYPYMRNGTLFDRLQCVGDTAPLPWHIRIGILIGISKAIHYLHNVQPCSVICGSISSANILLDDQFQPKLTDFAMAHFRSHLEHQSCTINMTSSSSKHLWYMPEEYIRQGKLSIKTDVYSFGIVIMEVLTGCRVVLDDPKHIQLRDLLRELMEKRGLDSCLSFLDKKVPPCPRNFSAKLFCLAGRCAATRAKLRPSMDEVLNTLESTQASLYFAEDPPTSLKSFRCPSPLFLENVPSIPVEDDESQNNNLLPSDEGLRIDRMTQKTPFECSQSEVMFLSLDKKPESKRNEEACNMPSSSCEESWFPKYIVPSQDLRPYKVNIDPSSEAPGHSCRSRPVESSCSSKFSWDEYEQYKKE

CHEK1 = CHEK1 (Homo sapiens, UniProt O14757)
PIK3C2B = PIK3C2B (Homo sapiens, UniProt O00750)
PIK3CA(H1047L) = PIK3CA(H1047L) (Homo sapiens, UniProt P42336, H1047L)
FES = FES (Homo sapiens, UniProt P07332)
Sequence of FES (P07332 whole entry): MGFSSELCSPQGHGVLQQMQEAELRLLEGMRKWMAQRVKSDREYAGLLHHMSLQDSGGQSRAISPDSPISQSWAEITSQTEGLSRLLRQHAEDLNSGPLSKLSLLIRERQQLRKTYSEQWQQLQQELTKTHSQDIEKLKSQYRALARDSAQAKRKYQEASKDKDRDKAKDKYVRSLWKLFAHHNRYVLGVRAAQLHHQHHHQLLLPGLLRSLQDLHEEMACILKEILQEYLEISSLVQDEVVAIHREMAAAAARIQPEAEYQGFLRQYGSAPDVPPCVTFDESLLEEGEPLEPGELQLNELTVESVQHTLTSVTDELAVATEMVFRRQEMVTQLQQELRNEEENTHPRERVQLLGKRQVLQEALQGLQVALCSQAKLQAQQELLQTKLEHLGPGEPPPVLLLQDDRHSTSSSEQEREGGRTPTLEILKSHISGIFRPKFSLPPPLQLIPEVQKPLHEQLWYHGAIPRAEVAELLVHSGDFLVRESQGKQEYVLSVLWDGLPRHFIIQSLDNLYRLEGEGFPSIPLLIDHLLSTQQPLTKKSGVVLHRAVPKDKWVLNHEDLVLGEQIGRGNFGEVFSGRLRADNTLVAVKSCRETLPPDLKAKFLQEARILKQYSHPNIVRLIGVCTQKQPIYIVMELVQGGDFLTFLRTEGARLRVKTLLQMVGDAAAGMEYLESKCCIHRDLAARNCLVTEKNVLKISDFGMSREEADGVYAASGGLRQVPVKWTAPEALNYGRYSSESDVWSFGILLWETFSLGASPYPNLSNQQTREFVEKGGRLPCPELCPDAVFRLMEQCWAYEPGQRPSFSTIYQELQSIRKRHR

PAK1 = PAK1 (Homo sapiens, UniProt Q13153)
[2] = target: T3, ABL1(Q252H)-nonphosphorylated (Homo sapiens, UniProt P00519, Q252H)
T3 construct: nonphosphorylated

TXK = TXK (Homo sapiens, UniProt P42681)
PIP5K2C = target: T4, PIP5K2C (Homo sapiens, UniProt Q8TBX8)
T4 construct: gene PIP4K2C

Sequence of MAP3K3 (Q99759 whole entry): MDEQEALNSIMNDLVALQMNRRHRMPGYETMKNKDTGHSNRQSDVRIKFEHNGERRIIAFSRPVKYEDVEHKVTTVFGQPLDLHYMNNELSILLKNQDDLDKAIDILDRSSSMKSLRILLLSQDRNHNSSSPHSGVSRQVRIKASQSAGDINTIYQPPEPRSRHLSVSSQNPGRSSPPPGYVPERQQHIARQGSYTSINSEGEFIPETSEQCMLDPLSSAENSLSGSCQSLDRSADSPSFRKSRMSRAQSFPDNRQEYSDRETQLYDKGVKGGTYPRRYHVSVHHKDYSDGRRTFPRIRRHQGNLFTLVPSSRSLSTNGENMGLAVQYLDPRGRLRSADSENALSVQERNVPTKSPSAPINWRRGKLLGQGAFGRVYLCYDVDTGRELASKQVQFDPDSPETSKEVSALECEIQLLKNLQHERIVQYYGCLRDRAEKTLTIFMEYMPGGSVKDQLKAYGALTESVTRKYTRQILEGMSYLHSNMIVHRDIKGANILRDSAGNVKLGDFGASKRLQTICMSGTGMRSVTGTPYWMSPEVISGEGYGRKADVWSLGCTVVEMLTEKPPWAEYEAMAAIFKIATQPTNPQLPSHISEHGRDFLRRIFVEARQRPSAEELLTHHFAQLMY
Sequence of FGR (P09769 whole entry): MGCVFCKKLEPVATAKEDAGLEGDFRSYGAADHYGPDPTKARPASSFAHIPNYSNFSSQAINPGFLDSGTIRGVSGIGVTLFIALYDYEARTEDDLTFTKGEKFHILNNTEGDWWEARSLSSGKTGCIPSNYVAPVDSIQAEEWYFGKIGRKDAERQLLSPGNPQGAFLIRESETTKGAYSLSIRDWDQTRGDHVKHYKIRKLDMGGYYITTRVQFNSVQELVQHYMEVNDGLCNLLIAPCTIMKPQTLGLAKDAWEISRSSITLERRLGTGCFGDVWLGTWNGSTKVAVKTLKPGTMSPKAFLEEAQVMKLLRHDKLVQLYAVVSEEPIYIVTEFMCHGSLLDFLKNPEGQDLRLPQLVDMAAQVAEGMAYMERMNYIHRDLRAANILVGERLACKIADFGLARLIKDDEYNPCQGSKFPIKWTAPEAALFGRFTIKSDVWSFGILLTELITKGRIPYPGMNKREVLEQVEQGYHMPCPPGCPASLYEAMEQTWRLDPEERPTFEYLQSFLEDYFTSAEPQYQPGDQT

With `COc1ccc(-c2cnccc2-c2cnc(NC(=O)C(C)C)s2)c(C(F)(F)F)c1` [CRT0105446, N-{5-[3-(4-Methoxy-2-trifluoromethyl-phenyl)-pyridin-4-yl]-hiazol-2-yl}-isobutyramide] as the molecule, how does the remaining binding at 10 µM (FGR) read?
Its remaining binding at 10 µM is 93%.

What about the remaining binding at 10 µM (EGFR(L861Q)) of the same molecule?
Its remaining binding at 10 µM is 100%.

And the remaining binding at 10 µM (PIK4CB)?
The remaining binding at 10 µM was 80%.

And the remaining binding at 10 µM (MAP3K3)?
The remaining binding at 10 µM was 100%.

What about the remaining binding at 10 µM (MAST1) of the same molecule?
The remaining binding at 10 µM was 68%.

And the remaining binding at 10 µM (ABL2)?
The remaining binding at 10 µM was 100%.

What about the remaining binding at 10 µM (VRK2) of the same molecule?
The remaining binding at 10 µM was 95%.

What about the remaining binding at 10 µM (PRKD2) of the same molecule?
Its remaining binding at 10 µM is 74%.

What about the remaining binding at 10 µM (FGFR1) of the same molecule?
The remaining binding at 10 µM was 98%.

And the remaining binding at 10 µM (STK36)?
The remaining binding at 10 µM was 57%.

What about the remaining binding at 10 µM [1] of the same molecule?
The remaining binding at 10 µM was 89%.

What about the remaining binding at 10 µM (NEK9) of the same molecule?
Its remaining binding at 10 µM is 92%.

What about the remaining binding at 10 µM (PIP5K1C) of the same molecule?
The remaining binding at 10 µM was 60%.

And the remaining binding at 10 µM (MAP4K2)?
The remaining binding at 10 µM was 100%.

And the remaining binding at 10 µM (IRAK3)?
The remaining binding at 10 µM was 89%.

And the remaining binding at 10 µM (CHEK1)?
The remaining binding at 10 µM was 100%.

What about the remaining binding at 10 µM (PIK3C2B) of the same molecule?
The remaining binding at 10 µM was 100%.

And the remaining binding at 10 µM (PIK3CA(H1047L))?
The remaining binding at 10 µM was 100%.

What about the remaining binding at 10 µM (FES) of the same molecule?
The remaining binding at 10 µM was 87%.

And the remaining binding at 10 µM (PAK1)?
Its remaining binding at 10 µM is 57%.

And the remaining binding at 10 µM [2]?
The remaining binding at 10 µM was 83%.

And the remaining binding at 10 µM (TXK)?
Its remaining binding at 10 µM is 100%.

What about the remaining binding at 10 µM (PIP5K2C) of the same molecule?
The remaining binding at 10 µM was 3%.

Which remaining binding at 10 µM (FGR) does the source give for `Cc1ccc(-c2cnccc2-c2cnc(Nc3ccc(O)cc3)s2)c(Cl)c1` [CRT0105950, 4-{5-[3-(2-Chloro-4-methyl-phenyl)-pyridin-4-yl]-thiazol-2-ylamino}-phenol] here?
The remaining binding at 10 µM was 32%.

What about the remaining binding at 10 µM (EGFR(L861Q)) of the same molecule?
Its remaining binding at 10 µM is 65%.

What about the remaining binding at 10 µM (PIK4CB) of the same molecule?
The remaining binding at 10 µM was 2.9%.

And the remaining binding at 10 µM (MAP3K3)?
Its remaining binding at 10 µM is 20%.

What about the remaining binding at 10 µM (MAST1) of the same molecule?
Its remaining binding at 10 µM is 84%.

What about the remaining binding at 10 µM (ABL2) of the same molecule?
The remaining binding at 10 µM was 58%.

What about the remaining binding at 10 µM (VRK2) of the same molecule?
The remaining binding at 10 µM was 72%.

What about the remaining binding at 10 µM (PRKD2) of the same molecule?
The remaining binding at 10 µM was 26%.

And the remaining binding at 10 µM (FGFR1)?
The remaining binding at 10 µM was 5%.

What about the remaining binding at 10 µM (STK36) of the same molecule?
The remaining binding at 10 µM was 17%.

And the remaining binding at 10 µM [1]?
The remaining binding at 10 µM was 50%.

What about the remaining binding at 10 µM (NEK9) of the same molecule?
Its remaining binding at 10 µM is 96%.

And the remaining binding at 10 µM (PIP5K1C)?
Its remaining binding at 10 µM is 100%.

What about the remaining binding at 10 µM (MAP4K2) of the same molecule?
The remaining binding at 10 µM was 81%.

And the remaining binding at 10 µM (IRAK3)?
The remaining binding at 10 µM was 8.1%.

And the remaining binding at 10 µM (CHEK1)?
Its remaining binding at 10 µM is 88%.

What about the remaining binding at 10 µM (PIK3C2B) of the same molecule?
Its remaining binding at 10 µM is 100%.

And the remaining binding at 10 µM (PIK3CA(H1047L))?
Its remaining binding at 10 µM is 97%.

And the remaining binding at 10 µM (FES)?
Its remaining binding at 10 µM is 93%.

What about the remaining binding at 10 µM (PAK1) of the same molecule?
The remaining binding at 10 µM was 97%.

What about the remaining binding at 10 µM [2] of the same molecule?
The remaining binding at 10 µM was 70%.

And the remaining binding at 10 µM (TXK)?
Its remaining binding at 10 µM is 38%.

What about the remaining binding at 10 µM (PIP5K2C) of the same molecule?
The remaining binding at 10 µM was 2.3%.
